Results published in patent US6821980B1, “Substituted 5-benzyl-2,4-diaminopyrimidines” (Basilea Pharmaceutica AG, priority 1999, dated 2004).
Values after ≈ are worked out from the molar mass of the structure shown. Like-named read-outs stand apart in the source and are kept apart here.

Experiments:
[1] = test system: Staphylococcus aureus 101; assay: MIC against Staphylococcus aureus 101; format: cell-based; settings: Staphylococcus aureus 101, MRSA- and trimethoprim-resistant, clinical isolate; for MIC: Table 2, read-out: MIC Sa101
[2] = target: purified DHFR of strain 157/4696 of Staphylococcus aureus (Staphylococcus aureus, UniProt P13955); assay: biochemical
[3] = test system: Streptococcus pneumoniae 1/1; assay: MIC against Streptococcus pneumoniae 1/1; format: cell-based
[4] = target: T1, purified DHFR of strain Sp1/1 of Streptococcus pneumoniae (Streptococcus pneumoniae serotype 4, UniProt Q54801); format: biochemical; settings: IC50 against purified DHFR of strain Sp1/1
T1 sequence (Q54801 1-168 I100L): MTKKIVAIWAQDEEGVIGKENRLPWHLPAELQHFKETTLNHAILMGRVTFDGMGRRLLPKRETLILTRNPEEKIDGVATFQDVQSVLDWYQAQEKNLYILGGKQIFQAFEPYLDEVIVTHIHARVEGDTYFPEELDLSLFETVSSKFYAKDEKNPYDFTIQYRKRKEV

[5] = Table 2, Streptococcus pneumoniae 1/1, trimethoprim- and penicillin-resistant, serotype 6, clinical isolate, read-out: MIC Sp1/1

purified DHFR of strain 157/4696 of Staphylococcus aureus, sequence (P13955 whole entry): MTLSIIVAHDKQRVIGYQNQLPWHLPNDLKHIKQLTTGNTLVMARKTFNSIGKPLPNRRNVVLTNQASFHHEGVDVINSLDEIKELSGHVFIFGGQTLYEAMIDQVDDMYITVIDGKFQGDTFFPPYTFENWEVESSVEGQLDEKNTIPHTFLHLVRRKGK

Row | SMILES | MIC Sa101 ([1]; Table 1) [µg/mL] | IC50 ([2]; Table 1, IC50 against purified DHFR of strain 157/4696 (highly trimethoprim-resistant; clinical isolate), read-out: DHFR Sa1) [nM] | MIC Sp1/1 ([3]; Table 1, Streptococcus pneumoniae 1/1, trimethoprim- and penicillin-resistant, serotype 6, clinical isolate) [µg/mL] | IC50 ([4]; Table 1) [nM] | MIC [1] [µg/mL] | IC50 [2] [nM] | MIC [3, 5] [µg/mL] | IC50 ([4]; Table 2) [nM] | MIC ([3]; Streptococcus pneumoniae, 1/1, read-out: MIC Sp1/1) [µg/mL]
1 | CCOc1cc(Cc2cnc(N)nc2N)cc(OCC2CC2)c1-c1cccc(N)c1 [Example 7a, 5-(3′-Amino-6-cyclopropylmethoxy-2-ethoxy-biphenyl-4-ylmethyl)-pirimidine-2,4-diamine] | 8 (≈ 19.7 µM) | 510 | 1 (≈ 2.47 µM) | 2.1 |  |  |  |  | 
2 | CCOc1cc(Cc2cnc(N)nc2N)cc(OCC(C)(C)COC)c1-c1ccc(O)cc1 [Example 08-a, 4′-(2,4-Diamino-pylimidin-5-ylmethyl)-6′-ethoxy-2′-(3-methoxy-2,2-dimethyl-propoxy)-biphenyl-4-ol] |  |  |  |  | 8 (≈ 17.7 µM) | 1700 | 2 (≈ 4.42 µM) | 18 | 
3 | CCOc1cc(Cc2cnc(N)nc2N)cc(OCC(C)(C)/C=C/C#N)c1-c1ccc(O)cc1 [Example 08-b, (E)-5-[4-(2,4-Diamino-pyrimidin-5-ylmethyl)-6-ethoxy-4′-hydroxy-biphenyl-2-yloxy]-4,4-dimethyl-pent-2-ene-nitrile] |  |  |  |  | 8 (≈ 17.4 µM) | 950 |  | 38 | 2 (≈ 4.35 µM)
4 | CCOc1cc(Cc2cnc(N)nc2N)cc(OCC2(CC#N)CC2)c1-c1ccc(O)cc1 [Example 08-c, {1-[4-(2,4-Diamino-pyrimidin-5-ylmethyl)-6-ethoxy-4′-hydroxy-biphenyl-2-yloxymethyl]-cyclopropyl}-acetonitrile] |  |  |  |  | 8 (≈ 18 µM) | 1600 | 4 (≈ 8.98 µM) | 24 | 
5 | CCOc1cc(Cc2cnc(N)nc2N)cc(OCC2(/C=C/C#N)CC2)c1-c1ccc(O)cc1 [Example 08-d, (E)-3-[1-[4-(2,4-Diamino-pyrimidin-5-ylmethyl)-6-ethoxy-4′-hydrozy-biphenyl-2-yloxymethyl]-cyopropyl]-acrylonitrile] |  |  |  |  | 8 (≈ 17.5 µM) | 620 | 4 (≈ 8.74 µM) | 16 | 
6 | CCOc1cc(Cc2cnc(N)nc2N)cc(OCCC2CCOCC2)c1-c1ccc(O)cc1 [Example 08-e, 4′-(2,4-Diamino-pyrimidin-5-ylmethyl)-6′-ethoxy-2′-[2-(tetrahydrogyran-4-yl)-ethoxy]-biphenyl-4-ol] |  |  |  |  | 8 (≈ 17.2 µM) | 950 | 1 (≈ 2.15 µM) | 5.6 | 
7 | CCOc1cc(Cc2cnc(N)nc2N)cc(OCC2(C#N)CC2)c1-c1ccc(O)cc1 [Example 08-f, 1-[4-(2,4-Diamino-pyrimidin-5-ylmethyl)-6-ethoxy-4′-hydroxy-biphenyl-2-yloxymethyl]-cyclopropanecarbonitrile] |  |  |  |  | 8 (≈ 18.5 µM) | 950 | 4 (≈ 9.27 µM) | 49 | 
8 | CCOc1cc(Cc2cnc(N)nc2N)cc(OCCc2ccccn2)c1-c1ccc(O)cc1 [Example 08-g, 4′-(2,4-Diamino-pyrimidin-5-ylmethyl)-6′-ethoxy-2′-(2-pyridin-2-yl-ethoxy)-biphenyl-4-ol] |  |  |  |  | 8 (≈ 17.5 µM) | 1300 | 4 (≈ 8.74 µM) | 52 | 
9 | CCOc1cc(Cc2cnc(N)nc2N)cc(OCC2CC2)c1-c1ccc(O)cc1 [Example 08-h, 2′-Cyclopropylmethoxy-4′-(2,4-diamino-pyrimidin-5-ylmethyl)-6′-ethoxy-biphenyl-4-ol] |  |  |  |  | 4 (≈ 9.84 µM) | 1200 | 2 (≈ 4.92 µM) | 11 | 
10 | CCOc1cc(Cc2cnc(N)nc2N)cc(OCC2CCC2)c1-c1ccc(O)cc1 [Example 08-i, 2′-Cyclobutylmethoxy-4′-(2,4-diamino-pyrimidin-5-ylmethyl)-6′-ethoxy-biphenyl-4-ol] |  |  |  |  | 2 (≈ 4.76 µM) | 1000 | 4 (≈ 9.51 µM) | 40 | 
11 | CCOc1cc(Cc2cnc(N)nc2N)cc(OC2CCCC2)c1-c1ccc(O)cc1 [Example 08-j, 2′-Cyclopentylox-4′-(2,4-diamino-pyrimidin-5-ylmethyl)-6′-ethoxy-biphenyl-4-ol] |  |  |  |  | 2 (≈ 4.76 µM) | 1600 | 2 (≈ 4.76 µM) | 26 | 
12 | CCOc1cc(Cc2cnc(N)nc2N)cc(OC2CCC2)c1-c1ccc(O)cc1 [Example 08-k, 2′-Cyclobutoxy-4′-(2,4-diamino-pyrimidin-5-ylmethyl)-6′-ethoxy-biphenyl-4-ol] |  |  |  |  | 4 (≈ 9.84 µM) | 2100 | 2 (≈ 4.92 µM) | 43 | 
